# From PubChem BioAssay (NCI)
#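 Exposure lasted 48 hours, with cells grown in 96-well plates and compounds tested at five concentrations. GI50 is the concentration that inhibits growth by half. TGI: total growth inhibition.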
# How the values were obtained:
# Assay in all cases: growth of human tumour cells (NCI), 48 h
# [1] = test system: 786-0 renal
# [2] = test system: A498 renal
# [3] = test system: A549 NSCLC
# [4] = test system: ACHN renal
# [5] = test system: BT-549 breast
# [6] = test system: CAKI-1 renal
# [7] = test system: CCRF-CEM leukemia
# [8] = test system: COLO 205 colon
# [9] = test system: DU-145 prostate
# [10] = test system: EKVX NSCLC
# [11] = test system: HCC-2998 colon
# [12] = test system: HCT-116 colon
# [13] = test system: HCT-15 colon
# [14] = test system: HL-60(TB) leukemia
# [15] = test system: HOP-62 NSCLC
# [16] = test system: HOP-92 NSCLC
# [17] = test system: HS 578T breast
# [18] = test system: HT29 colon
# [19] = test system: IGROV1 ovarian
# [20] = test system: K-562 leukemia
# [21] = test system: KM12 colon
# [22] = test system: LOX IMVI melanoma
# [23] = test system: M14 melanoma
# [24] = test system: MALME-3M melanoma
# [25] = test system: MCF7 breast
# [26] = test system: MDA-MB-231 breast
# [27] = test system: MDA-MB-435
# [28] = test system: MDA-MB-468 breast
# [29] = test system: MOLT-4 leukemia
# [30] = test system: NCI-H226 lung
# [31] = test system: NCI-H23 lung
# [32] = test system: NCI-H460 lung
# [33] = test system: NCI-H522 lung
# [34] = test system: OVCAR-3 ovarian
# [35] = test system: OVCAR-4 ovarian
# [36] = test system: OVCAR-5 ovarian
# [37] = test system: OVCAR-8 ovarian
# [38] = test system: PC-3 prostate
# [39] = test system: RPMI-8226 leukemia
# [40] = test system: RXF 393 renal
# [41] = test system: SF-268 CNS
# [42] = test system: SF-295 CNS
# [43] = test system: SF-539 CNS
# [44] = test system: SK-MEL-2 melanoma
# [45] = test system: SK-MEL-28 melanoma
# [46] = test system: SK-MEL-5 melanoma
# [47] = test system: SK-OV-3 ovarian
# [48] = test system: SN12C renal
# [49] = test system: SNB-19 CNS
# [50] = test system: SNB-75 CNS
# [51] = test system: SR leukemia
# [52] = test system: SW-620 colon
# [53] = test system: T-47D breast
# [54] = test system: TK-10 renal
# [55] = test system: U251 CNS
# [56] = test system: UACC-257 melanoma
# [57] = test system: UACC-62 melanoma
# [58] = test system: UO-31 renal
structure (smiles),measurement,setting,value
CC(C)N=C([Se])NC(=O)c1cccs1,GI50,[1],17.7 µM
same,TGI,[1],31.9 µM
same,GI50,[2],6.55 µM
same,TGI,[2],59.2 µM
same,GI50,[3],4.3 µM
same,TGI,[3],33.1 µM
same,GI50,[4],18 µM
same,TGI,[4],37.4 µM
same,GI50,[5],15.4 µM
same,TGI,[5],31 µM
same,GI50,[6],17 µM
same,TGI,[6],32.6 µM
same,GI50,[7],17.4 µM
same,TGI,[7],50.6 µM
same,GI50,[8],16.8 µM
same,TGI,[8],31.7 µM
same,GI50,[9],19.3 µM
same,TGI,[9],40 µM
same,GI50,[10],7.45 µM
same,TGI,[10],20.8 µM
same,GI50,[11],5.8 µM
same,TGI,[11],18.4 µM
same,GI50,[12],4.78 µM
same,TGI,[12],18.4 µM
same,GI50,[13],18.4 µM
same,TGI,[13],37.5 µM
same,GI50,[14],20.3 µM
same,TGI,[14],55.6 µM
same,GI50,[15],4.11 µM
same,TGI,[15],19.1 µM
same,GI50,[16],22.1 µM
same,TGI,[16],51.6 µM
same,GI50,[17],7.16 µM
same,TGI,[17],32 µM
same,GI50,[18],18.4 µM
same,TGI,[18],46.6 µM
same,GI50,[19],8.04 µM
same,TGI,[19],21.1 µM
same,GI50,[20],28.4 µM
same,TGI,[20],87.1 µM
same,GI50,[21],12.1 µM
same,TGI,[21],26.2 µM
same,GI50,[22],13.2 µM
same,TGI,[22],27.2 µM
same,GI50,[23],12.7 µM
same,TGI,[23],26.6 µM
same,GI50,[24],17 µM
same,TGI,[24],33.2 µM
same,GI50,[25],6.58 µM
same,TGI,[25],35.2 µM
same,GI50,[26],17.6 µM
same,TGI,[26],36.1 µM
same,GI50,[27],16.3 µM
same,TGI,[27],33 µM
same,GI50,[28],16.5 µM
same,TGI,[28],34.6 µM
same,GI50,[29],20.8 µM
same,TGI,[29],58.1 µM
same,GI50,[30],16.3 µM
same,TGI,[30],35.3 µM
same,GI50,[31],10.2 µM
same,TGI,[31],23.8 µM
same,GI50,[32],3.37 µM
same,TGI,[32],19 µM
same,GI50,[33],14.4 µM
same,TGI,[33],28.1 µM
same,GI50,[34],14.9 µM
same,TGI,[34],28.6 µM
same,GI50,[35],16.8 µM
same,TGI,[35],36 µM
same,GI50,[36],16 µM
same,TGI,[36],31.4 µM
same,GI50,[37],15.6 µM
same,TGI,[37],29.5 µM
same,GI50,[38],4.06 µM
same,TGI,[38],16.6 µM
same,GI50,[39],19.9 µM
same,TGI,[39],56.4 µM
same,GI50,[40],12.2 µM
same,TGI,[40],24.8 µM
same,GI50,[41],19.9 µM
same,TGI,[41],57.1 µM
same,GI50,[42],2180 nM
same,TGI,[42],6.77 µM
same,GI50,[43],13.2 µM
same,TGI,[43],26.1 µM
same,GI50,[44],15.7 µM
same,TGI,[44],34.5 µM
same,GI50,[45],16.9 µM
same,TGI,[45],35.1 µM
same,GI50,[46],2820 nM
same,TGI,[46],14.3 µM
same,GI50,[47],16.2 µM
same,TGI,[47],30.5 µM
same,GI50,[48],10.9 µM
same,TGI,[48],23.9 µM
same,GI50,[49],4.82 µM
same,TGI,[49],20 µM
same,GI50,[50],5.51 µM
same,TGI,[50],21.3 µM
same,GI50,[51],12.6 µM
same,TGI,[51],49.9 µM
same,GI50,[52],16.7 µM
same,TGI,[52],33 µM
same,GI50,[53],19.4 µM
same,TGI,[53],48.8 µM
same,GI50,[54],16 µM
same,TGI,[54],29.5 µM
same,GI50,[55],7.84 µM
same,TGI,[55],21.5 µM
same,GI50,[56],15.5 µM
same,TGI,[56],29.8 µM
same,GI50,[57],14.1 µM
same,TGI,[57],28.7 µM
same,GI50,[58],13.8 µM
same,TGI,[58],26.7 µM
